Source: patent publication US6479435B1, “Diaryl ethers and processes for their preparation and herbicidal and desiccant compositions containing them” (ISK Americas Incorporated, priority 1997, dated 2002)

Experiments:
Format in all cases: in vivo
[1] = system: Johnsongrass (Sorghum halepense, SORHA); assay: Pre-emerge greenhouse herbicide test, phytotoxicity rating; settings: 14 days after application, rating scale 0-100
In short: (§1)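 Seeds sown in sandy loam mix one day before track-sprayer application of compounds in acetone at 125–1000 g ai/ha (187 l/ha), then surface-watered to incorporate and bottom-watered. Visual rating 14 days after application on a 0–100 scale (0 = no damage, 100 = all plants dead).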

[2] = system: barnyardgrass (Echinochloa crusgalli, ECHCG); assay: as above; settings: 14 days after application, rating scale 0-100
In short: as §1

[3] = system: common ragweed (Ambrosia artemisiifolia L., AMBEL); assay: as above; settings: 14 days after application, rating scale 0-100
In short: as §1

[4] = system: green foxtail (Setaria viridis, SETVI); assay: as above; settings: 14 days after application, rating scale 0-100
In short: as §1

[5] = system: ivyleaf morningglory (Ipomoea hederacea, IPOHE); assay: as above; settings: 14 days after application, rating scale 0-100
In short: as §1

[6] = system: lambsquarters (Chenopodium album, CHEAL); assay: as above; settings: 14 days after application, rating scale 0-100
In short: as §1

[7] = system: large crabgrass (Digitaria sanguinalis, DIGSA); assay: as above; settings: 14 days after application, rating scale 0-100
In short: as §1

[8] = system: redroot pigweed (Amaranthus retroflexus, AMARE); assay: as above; settings: 14 days after application, rating scale 0-100
In short: as §1

[9] = system: sicklepod (Cassia obtusifolia, CASOB); assay: as above; settings: 14 days after application, rating scale 0-100
In short: as §1

[10] = system: velvetleaf (Abutilon theophrasti, ABUTH); assay: as above; settings: 14 days after application, rating scale 0-100
In short: as §1

[11] = system: field corn (Zea mays L., var. Dekalb 535, CORN); assay: Pre-emerge greenhouse test, crop damage rating; settings: 14 days after application, rating scale 0-100
In short: as §1

[12] = system: upland rice (Oryza sp., var.Tebonnet, RICE); assay: Pre-emerge greenhouse test, crop damage rating; settings: 14 days after application, rating scale 0-100
In short: as §1

[13] = system: soybean (Glycine max L., var. Pella 86, SOY); assay: Pre-emerge greenhouse test, crop damage rating; parameters: key to SOY crop damage rating: 0 = no damage, 100 = complete death of all plants; settings: 14 days after application, rating scale 0-100
In short: as §1

[14] = system: common ragweed (Ambrosia artemisiifolia L., AMBEL); assay: Post-emerge greenhouse herbicide test, phytotoxicity rating; settings: 14 days after application, scale 0-100
In short: (§2)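 Compounds in acetone with 0.25% v/v non-ionic surfactant were track-sprayed at 187 l/ha over plants at the 2-3 leaf stage, at 63 to 1000 g ai/ha. Pots were bottom-watered. Injury was scored visually 14 days later on a 0-100 scale, where 0 is no damage and 100 is complete plant death.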

[15] = system: Johnsongrass (Sorghum halepense, SORHA); assay: as above; settings: 14 days after application, scale 0-100
In short: as §2

[16] = system: barnyardgrass (Echinochloa crusgalli, ECHCG); assay: as above; settings: 14 days after application, scale 0-100
In short: as §2

[17] = system: green foxtail (Setaria viridis, SETVI); assay: as above; settings: 14 days after application, scale 0-100
In short: as §2

[18] = system: ivyleaf morningglory (Ipomoea hederacea, IPOHE); assay: as above; settings: 14 days after application, scale 0-100
In short: as §2

[19] = system: lambsquarters (Chenopodium album, CHEAL); assay: as above; settings: 14 days after application, scale 0-100
In short: as §2

[20] = system: large crabgrass (Digitaria sanguinalis, DIGSA); assay: as above; settings: 14 days after application, scale 0-100
In short: as §2

[21] = system: redroot pigweed (Amaranthus retroflexus, AMARE); assay: as above; settings: 14 days after application, scale 0-100
In short: as §2

[22] = system: sicklepod (Cassia obtusifolia, CASOB); assay: as above; settings: 14 days after application, scale 0-100
In short: as §2

[23] = system: velvetleaf (Abutilon theophrasti, ABUTH); assay: as above; settings: 14 days after application, scale 0-100
In short: as §2

[24] = system: field corn (Zea mays L., var. Dekalb 535, CORN); assay: Post-emerge greenhouse test, crop damage rating; settings: 14 days after application, scale 0-100
In short: as §2

[25] = system: upland rice (Oryza sp., var.Tebonnet, RICE); assay: Post-emerge greenhouse test, crop damage rating; settings: 14 days after application, scale 0-100
In short: as §2

[26] = system: soybean (Glycine max L., var. Pella 86, SOY); assay: Post-emerge greenhouse test, crop damage rating; parameters: key to crop damage rating SOY: 0-100 scale: 0 = no damage, 100 = complete death of all plants; settings: 14 days after application, scale 0-100
In short: as §2

COc1nc(OC)nc(Oc2cc(-n3c(=O)n4n(c3=S)CCCC4)c(F)cc2Cl)n1 [Compound 8-34]
SORHA phytotoxicity rating ([1]; Rate 125 g al/ha): 20 | SORHA phytotoxicity rating ([1]; Rate 500 g al/ha): 80 | ECHCG phytotoxicity rating ([2]; Rate 125 g al/ha): 0 | ECHCG phytotoxicity rating ([2]; Rate 500 g al/ha): 40 | AMBEL phytotoxicity rating ([3]; Rate 125 g al/ha): 40 | AMBEL phytotoxicity rating ([3]; Rate 500 g al/ha): 100 | SETVI phytotoxicity rating ([4]; Rate 125 g al/ha): 80 | SETVI phytotoxicity rating ([4]; Rate 500 g al/ha): 99 | IPOHE phytotoxicity rating ([5]; Rate 125 g al/ha): 0 | IPOHE phytotoxicity rating ([5]; Rate 500 g al/ha): 80 | CHEAL phytotoxicity rating ([6]; Rate 125 g al/ha): 100 | CHEAL phytotoxicity rating ([6]; Rate 500 g al/ha): 100 | DIGSA phytotoxicity rating ([7]; Rate 125 g al/ha): 10 | DIGSA phytotoxicity rating ([7]; Rate 500 g al/ha): 80 | AMARE phytotoxicity rating ([8]; Rate 125 g al/ha): 100 | AMARE phytotoxicity rating ([8]; Rate 500 g al/ha): 100 | CASOB phytotoxicity rating ([9]; Rate 125 g al/ha): 0 | CASOB phytotoxicity rating ([9]; Rate 500 g al/ha): 40 | ABUTH phytotoxicity rating ([10]; Rate 125 g al/ha): 100 | ABUTH phytotoxicity rating ([10]; Rate 500 g al/ha): 100 | CORN crop damage rating ([11]; Rate 125 g al/ha): 0 | CORN crop damage rating ([11]; Rate 500 g al/ha): 5 | RICE crop damage rating ([12]; Rate 125 g al/ha): 20 | RICE crop damage rating ([12]; Rate 500 g al/ha): 50 | SOY crop damage rating ([13]; Rate 125 g al/ha): 10 | SOY crop damage rating ([13]; Rate 500 g al/ha): 0 | phytotoxicity rating AMBEL ([14]; rate 63 g ai/ha): 50 | phytotoxicity rating AMBEL ([14]; rate 500 g ai/ha): 95 | phytotoxicity rating SORHA ([15]; rate 63 g ai/ha): 0 | phytotoxicity rating SORHA ([15]; rate 500 g ai/ha): 50 | phytotoxicity rating ECHCG ([16]; rate 63 g ai/ha): 10 | phytotoxicity rating ECHCG ([16]; rate 500 g ai/ha): 0 | phytotoxicity rating SETVI ([17]; rate 63 g ai/ha): 20 | phytotoxicity rating SETVI ([17]; rate 500 g ai/ha): 65 | phytotoxicity rating IPOHE ([18]; rate 63 g ai/ha): 100 | phytotoxicity rating IPOHE ([18]; rate 500 g ai/ha): 100 | phytotoxicity rating CHEAL ([19]; rate 63 g ai/ha): 95 | phytotoxicity rating CHEAL ([19]; rate 500 g ai/ha): 100 | phytotoxicity rating DIGSA ([20]; rate 63 g ai/ha): 0 | phytotoxicity rating DIGSA ([20]; rate 500 g ai/ha): 40 | phytotoxicity rating AMARE ([21]; rate 63 g ai/ha): 50 | phytotoxicity rating AMARE ([21]; rate 500 g ai/ha): 100 | phytotoxicity rating CASOB ([22]; rate 63 g ai/ha): 30 | phytotoxicity rating CASOB ([22]; rate 500 g ai/ha): 100 | phytotoxicity rating ABUTH ([23]; rate 63 g ai/ha): 95 | phytotoxicity rating ABUTH ([23]; rate 500 g ai/ha): 100 | crop damage rating CORN ([24]; rate 63 g ai/ha): 5 | crop damage rating CORN ([24]; rate 500 g ai/ha): 15 | crop damage rating RICE ([25]; rate 63 g ai/ha): 0 | crop damage rating RICE ([25]; rate 500 g ai/ha): 40 | crop damage rating SOY ([26]; rate 63 g ai/ha): 50 | crop damage rating SOY ([26]; rate 500 g ai/ha): 90
